Laboratory results reported in US20030133972A1, “Targeted multivalent macromolecules” (priority 2000, published 2003).
“And” between values parts separate entries of the source, which are not always exact repeats. Equal values may be shown once.

Tests used:
αvβ3 integrin = αvβ3 integrin (Homo sapiens, UniProt P05106+P06756); assay: Competitive integrin binding assay (PVs mixed with free ligand 10); settings: read-out: concentration of free ligand 10 to achieve 50% inhibition of PV binding; against PV1 carrying the equivalent of 0.5 μM of 10 on its surface
[1] = test system: αvβ3 positive M21 Melanoma cells binding to vitronectin coated plates; assay: Cell adhesion inhibition assay on vitronectin coated plates; type: cell-based, human; settings: 1 h incubation, PVs as equivalents of compound 10 on the surface, read-out: Cell Adhesion Assay IC50 (μM of 10 on NPs)
[2] = test system: collagen receptors (α2β1 integrins); assay: Cell adhesion assay on plates coated with collagen; type: cell-based
Experimental: The cell adhesion assay was also performed with plates coated with collagen. Collagen binds to collagen receptors (α2β1 integrins) but not αvβ3 integrins. […] Without being bound by theory, it is believed that the observed inhibition of cell adhesion by PV-integrin agonist is due to the PV preventing interaction of collagen and its receptor by steric hindrance, due to the large size of the PV. Thus, not only does the PV targeted to a specific receptor bind to the receptor on the cell surface, but it blocks access to adjacent receptors due to its steric bulk.

[3] = test system: MS1 mouse endothelial pancreatic islet cells; assay: In vitro cell proliferation assay (crystal violet), endothelial cells; type: cell-based; settings: murine endothelial cells
Experimental: The effect of free doxorubicin or liposome-encapsulated doxorubicin on the cells was assayed calorimetrically by crystal violet staining method with slight modification. Mouse endothelial cells (ATCC# CRL-2279) and mouse melanoma cells (M2) were seeded in 96well flat-bottomed microtitre plates. The effect of the vesicles on cell proliferation was determined with cells near confluence (about 80%). The medium in each well was replaced with 100 ul of culture medium containing 250 ug/ml of vesicles containing doxorubicin. The mouse endothelial and melanoma cells were incubated for 1 hour at 37° C. and 5% CO2. After 1 hour incubation, the drug was removed, and compete medium that was lacking drug was added, and the cells were incubated for 48 hours at 37° C. and 5% CO2. The experiment was performed in duplicate. At the end of the incubation period, the cells were washed once with PBS and the cultures were fixed by 70% ethanol overnight. Next, the cells were stained with 100 ul of 0.1% crystal violet in 10% ethanol for 10 minutes at room temperature, and the cells were gently washed with water for 5 times. Next, 100 ul of 1% SDS was added to each well and the plates were placed on an orbital shaker for 15 minutes. After the crystal violet in cell membrane was removed with SDS, the plate was read at 590 nm. Finally, cell viability was evaluated as the mean value of optical density.

VEGFR1 = VEGFR1 (Homo sapiens, UniProt P17948); settings: affinity of VEGFR1 for VEGF; cited from earlier work

## 4-[2-(3,4,5,6-Tetrahydropyrimidin-2-ylamino)ethyloxy]-benzoyl-2-(S)amino Ethylsulfonylamino-β-alanine [Compound 10]
αvβ3 integrin
  IC50: 65 µM
[1]
  IC50: 64 µM and 63.9 µM
[2]
  inhibition of cell adhesion to collagen coated plates: neither the PV alone nor the agonist alone inhibited cell adhesion

## COc1cccc2c1C(=O)c1c(O)c3c(c(O)c1C2=O)C[C@@](O)(C(=O)CO)C[C@@H]3O[C@H]1C[C@H](N)[C@H](O)[C@H](C)O1 [Doxorubicin, doxorubicin]
[3]
  effect on cell proliferation: significant reductions in cell proliferation

## VEGF
VEGFR1
  Kd: 1 to 20 pM
